The text below walks through data of patent US9498483B2, “2,3,5-trisubstituted thiophene compounds and uses thereof” (priority 2010, dated 2016).

Assay [1] has as its system HCV replicon I389luc-ubi-neo/NS3-3′/ET in ET (Huh-lucubineo-ET) cells. Kind of assay: Replicon assay (Biological Example 2), luciferase readout. The class given is cell-based. The note with it: Hepatitis C virus. In short, it runs like this:
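EC50 values come from Hill fits of % inhibition of replicon-driven firefly luciferase, relative to no-compound wells. Compounds were serially diluted (10 points, 3-fold, 0.1 nM–50 μM final, 0.5% DMSO) onto ET replicon cells and read after 48 h.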
A general note: A replicon is a self-replicating genome or part of one, used to study replication in cells.

The target in another assay is T1, HCV polymerase (Hepatitis C virus genotype 1b, UniProt Q9WMX2).
T1 construct: (His)6 (C); made in house; host or cells: XL-1 cells (E. coli, by own knowledge)
Description: Polymerase assay of Biological Example 1 (IC50 values of Table 3). Particulars: IC50 values of Table 3, polymerase assay of Biological Example 1; read-out: NS5B-enzyme3. It counts as biochemical.

Setting [2] is: ET cells, luciferase activity 48 hours after compound.

Take `O=C(O)c1sc(-c2ccc(Cl)cc2)cc1N1C(=O)CN(S(=O)(=O)c2ccc(N3CC4CCC(C3)O4)nc2)C[C@H]1C1CCCCC1` [Compound 227, 5-(4-Chloro-phenyl)-3-{(R)-2-cyclohexyl-4-[6-(8-oxa-3-aza-bicyclo[3.2.1]oct-3-yl)-pyridine-3-sulfonyl]-6-oxo-piperazin-1-yl}-thiophene-2-carboxylic acid]: the IC50 in assay [1] (setting [2]) is at most 100 nM; at HCV polymerase, 1 nM.

As to `O=C(O)c1sc(-c2ccc(Cl)cc2)cc1N1C(=O)CN(S(=O)(=O)c2ccc(N3CC4CC3CO4)nc2)C[C@H]1C1CCCCC1` (stereo partly drawn) [Compound 229, 5-(4-Chloro-phenyl)-3-{(R)-2-cyclohexyl-4-[6-(2-oxa-5-aza-bicyclo[2.2.1]hept-5-yl)-pyridine-3-sulfonyl]-6-oxo-piperazin-1-yl}-thiophene-2-carboxylic acid], the values for the IC50 (in assay [1] (setting [2]); at HCV polymerase) were at most 100 nM and 1 nM, respectively.

Take `CC(C)(C)C#Cc1cc(N2C(=O)CN(S(=O)(=O)c3ccc(C(F)(F)F)nc3)C[C@H]2C2CCCCC2)c(C(=O)O)s1` [Compound 230, 3-[(R)-2-Cyclohexyl-6-oxo-4-(6-trifluoromethyl-pyridine-3-sulfonyl)-piperazin-1-yl]-5-(3,3-dimethyl-but-1-ynyl)-thiophene-2-carboxylic acid]: the IC50 in assay [1] (between 100 nM and 5.0 uM) was 100 to 5000 nM; at HCV polymerase, 6 nM.

On to `O=C(O)c1sc(-c2ccc(Cl)cc2)cc1N1C(=O)CN(S(=O)(=O)c2ccc(N3CCCC3)cc2)C[C@H]1C1CCCCC1` [Compound 231, 5-(4-Chloro-phenyl)-3-[(R)-2-cyclohexyl-6-oxo-4-(4-pyrrolidin-1-yl-benzenesulfonyl)-piperazin-1-yl]-thiophene-2-carboxylic acid], for which the IC50 in assay [1] (setting [2]) was at most 100 nM; on HCV polymerase, 1 nM.

Take `O=C(O)c1sc(-c2ccc(F)cc2)cc1N1C(=O)CN(S(=O)(=O)c2ccc(N3CCCC3)nc2)C[C@H]1C1CCCCC1` [Compound 232, 3-[(R)-2-Cyclohexyl-6-oxo-4-(6-pyrrolidin-1-yl-pyridine-3-sulfonyl)-piperazin-1-yl]-5-(4-fluoro-phenyl)-thiophene-2-carboxylic acid]: the IC50 in assay [1] (setting [2]) is at most 100 nM; on HCV polymerase it was 1 nM.

Take `O=C(O)c1sc(-c2ccc(Cl)cc2)cc1N1C(=O)CN(S(=O)(=O)c2ccc(N3CCCCC3)cc2)C[C@H]1C1CCCCC1` [Compound 233, 5-(4-Chloro-phenyl)-3-[(R)-2-cyclohexyl-6-oxo-4-(4-piperidin-1-yl-benzenesulfonyl)-piperazin-1-yl]-thiophene-2-carboxylic acid]: the IC50 in assay [1] (setting [2]) was at most 100 nM; at HCV polymerase it was 2 nM.

Regarding `C[C@@H]1CCCN1c1ccc(S(=O)(=O)N2CC(=O)N(c3cc(-c4ccc(Cl)cc4)sc3C(=O)O)[C@H](C3CCCCC3)C2)cc1` [Compound 234, 5-(4-Chloro-phenyl)-3-{(R)-2-cyclohexyl-4-[4-((R)-2-methyl-pyrrolidin-1-yl)-benzenesulfonyl]-6-oxo-piperazin-1-yl}-thiophene-2-carboxylic acid], the results for the IC50 (in assay [1] (setting [2]); on HCV polymerase) were at most 100 nM and 1 nM, respectively.

On to `CC(C)(C)C#Cc1cc(N2C(=O)COC[C@H]2C2CCCCC2)c(C(=O)O)s1` [Compound 236, 3-((R)-3-Cyclohexyl-5-oxo-morpholin-4-yl)-5-(3,3-dimethyl-but-1-ynyl)-thiophene-2-carboxylic acid], for which the figures for the IC50 (in assay [1] (setting [2]); on HCV polymerase) were at most 100 nM and 3 nM, respectively.

Regarding `C[C@H]1[C@@H](C2CCCCC2)N(c2cc(C#CC(C)(C)C)sc2C(=O)O)C(=O)N1C` [Compound 237, 3-((4S,5R)-5-Cyclohexyl-3,4-dimethyl-2-oxo-imidazolidin-1-yl)-5-(3,3-dimethyl-but-1-ynyl)-thiophene-2-carboxylic acid], the IC50 in assay [1] (between 100 nM and 5.0 uM) was 100 to 5000 nM; at HCV polymerase it was 42 nM.

On to `CC(C)(C)C#Cc1cc(N2C(=O)CN(S(=O)(=O)c3ccc(C#N)cc3)C[C@H]2C2CCCCC2)c(C(=O)O)s1` [Compound 238, 3-[(R)-4-(4-Cyano-benzenesulfonyl)-2-cyclohexyl-6-oxo-piperazin-1-yl]-5-(3,3-dimethyl-but-1-ynyl)-thiophene-2-carboxylic acid], for which the results for the IC50 (in assay [1] (setting [2]); on HCV polymerase) were at most 100 nM and 2 nM, respectively.

With `CC(C)(C)C#Cc1cc(N2C(=O)CN(S(=O)(=O)c3cccc(F)c3)C[C@H]2C2CCCCC2)c(C(=O)O)s1` [Compound 239, 3-[(R)-2-Cyclohexyl-4-(3-fluoro-benzenesulfonyl)-6-oxo-piperazin-1-yl]-5-(3,3-dimethyl-but-1-ynyl)-thiophene-2-carboxylic acid], the IC50 in assay [1] (setting [2]) was at most 100 nM; on HCV polymerase it was 2 nM.

As for `CC(C)(C)C#Cc1cc(N2C(=O)CN(S(=O)(=O)c3cn[nH]c3)C[C@H]2C2CCCCC2)c(C(=O)O)s1` [Compound 241, 3-[(R)-2-Cyclohexyl-6-oxo-4-(1H-pyrazole-4-sulfonyl)-piperazin-1-yl]-5-(3,3-dimethyl-but-1-ynyl)-thiophene-2-carboxylic acid], the IC50 is at most 100 nM in assay [1] (setting [2]) and 1 nM on HCV polymerase.

For `CC(C)(C)C#Cc1cc(N2C(=O)CN(S(=O)(=O)c3cccc(Cl)c3)C[C@H]2C2CCCCC2)c(C(=O)O)s1` [Compound 242, 3-[(R)-4-(3-Chlorobenzenesulfonyl)-2-cyclohexyl-6-oxo-piperazin-1-yl]-5-(3,3-dimethyl-but-1-ynyl)-thiophene-2-carboxylic acid], the IC50 was 100 to 5000 nM in assay [1] (between 100 nM and 5.0 uM); 5 nM on HCV polymerase.

Regarding `CC(C)(C)C#Cc1cc(N2C(=O)CN(S(=O)(=O)c3ccc(F)cc3)C[C@H]2C2CCCCC2)c(C(=O)O)s1` [Compound 243, 3-[(R)-2-Cyclohexyl-4-(4-fluoro-benzenesulfonyl)-6-oxo-piperazin-1-yl]-5-(3,3-dimethyl-but-1-ynyl)-thiophene-2-carboxylic acid], the IC50 is at most 100 nM in assay [1] (setting [2]) and 2 nM on HCV polymerase.

In the case of `Cc1nc(C)c(S(=O)(=O)N2CC(=O)N(c3cc(C#CC(C)(C)C)sc3C(=O)O)[C@H](C3CCCCC3)C2)s1` [Compound 244, 3-[(R)-2-Cyclohexyl-4-(2,4-dimethyl-thiazole-5-sulfonyl)-6-oxo-piperazin-1-yl]-5-(3,3-dimethyl-but-1-ynyl)-thiophene-2-carboxylic acid], the values for the IC50 (in assay [1] (setting [2]); at HCV polymerase) were at most 100 nM and 2 nM, respectively.

For `CC(C)(C)C#Cc1cc(N2C(=O)CN(S(=O)(=O)C3CC3)C[C@H]2C2CCCCC2)c(C(=O)O)s1` [Compound 245, 3-((R)-2-Cyclohexyl-4-cyclopropanesulfonyl-6-oxo-piperazin-1-yl)-5-(3,3-dimethyl-but-1-ynyl)-thiophene-2-carboxylic acid], the IC50 is 100 to 5000 nM in assay [1] (between 100 nM and 5.0 uM); 5 nM on HCV polymerase.

Turning to `COc1ccc(S(=O)(=O)N2CC(=O)N(c3cc(C#CC(C)(C)C)sc3C(=O)O)[C@H](C3CCCCC3)C2)cc1F` [Compound 246, 3-[(R)-2-Cyclohexyl-4-(3-fluoro-4-methoxy-benzenesulfonyl)-6-oxo-piperazin-1-yl]-5-(3,3-dimethyl-but-1-ynyl)-thiophene-2-carboxylic acid], the figures for the IC50 (in assay [1] (setting [2]); on HCV polymerase) were at most 100 nM and 4 nM, respectively.

As to `CC(C)(C)C#Cc1cc(N2C(=O)CN(S(=O)(=O)c3c[nH]cn3)C[C@H]2C2CCCCC2)c(C(=O)O)s1` [Compound 247, 3-[(R)-2-Cyclohexyl-4-(1H-imidazole-4-sulfonyl)-6-oxo-piperazin-1-yl]-5-(3,3-dimethyl-but-1-ynyl)-thiophene-2-carboxylic acid], the IC50 is at most 100 nM in assay [1] (setting [2]) and 2 nM at HCV polymerase.
